For data set [1] the following is noted: log cumulative stability constant; cited from earlier work.
For data set [2] the following is noted: log cumulative stability constant; cited from earlier work. This is another data set of the same source.
The conditions of data set [3]: log cumulative stability constant; cited from earlier work. The source holds these as a separate data set.
For the next data set, the system named is Vaccinia virus. As to conditions: monkey kidney cells; cited from earlier work.
A further data set concerns CaSki cells. Nature of the data set: MTS mitochondrial function assay, loss of cell viability, 72 hour cultures. Format: cell-based, human. As to conditions: for Pa Effect Alone: Pa 2.5 mM; for SY Effect Alone: SY 150 μM. The procedure:
(§1) In vitro cell culture experiments were performed to investigate the induction of apoptosis by combinations of Diindolylmethane (DIM), Silybin (SY), Picolinic Acid (PA), Sodium Butyrate (BA), and Gallium Nitrate (Ga) in relevant cervical cancer cells. The cell lines CaSki (containing multiple copies of integrated HPV16 DNA), C33A (HPV negative with mutant p53), were utilized. Cells were maintained and assays for apoptosis induction performed as previously described (Chen D Z, Qi M, Auborn K J and Carter T H, Indole-3-carbinol and diindolylmethane induce apoptosis of human cervical cancer cells and in murine HPV 16-transgenic preneoplastic cervical epithelium. J Nutr. 2001 December;131(12):3294-302). Novel combinations of DIM and various Iron/Zinc chelators were tested to assess and document greater than additive (synergistic) apoptosis-related activity in controlled 72 hour cultures.
(§2) The primary assay for apoptosis-related loss of cell viability was the mitochondrial function assay [reduction of 3-(4,5-dimethylthiazol-2-yl)-5-(3-carboxymethoxyphenyl)-2-(4-sulfophenyl)-2H-tetrazolium (MTS)] using a MTS kit (Promega, Madison, Wis.). A minimum of 4 replicate wells per condition were studied and absorbance at […] of the solution in individual wells was determined with a multi-well plate reader. Data were analyzed by plotting the mean and SD of cell viability versus concentration of DIM, Iron/Zinc chelator or other growth inhibitors.
(§3) Using doses for each agent at or below the ID50 levels, synergistic, apoptosis-related, reductions in cell viability were documented for both combinations of DIM and Iron disrupting compounds and for combinations of DIM and Zinc disrupting compounds. Results showing percent reductions of cell viability using the MTS assay for individual agents, combined effects, and extent of synergism are summarized in the following tables and FIGS. 1-3.
In general terms: Formazan colour is commonly taken as a measure of viable cells.

The conditions of data set [4]: cited from earlier work.
The test system of a further data set is C33A cells. As to the kind of experiment: MTS mitochondrial function assay, loss of cell viability, 72 hour cultures. Format: cell-based, human. The procedure: as §1, §2, §3
The subject of data set [5] is papillomavirus altered cervical cancer cell lines. As to conditions: cell culture; cited from earlier work.
In another data set the test system is tumor tissue. Nature of the data set: Ga-67 SPECT scan in patients with oropharyngeal squamous cell cancer. In kind it is in vivo, human. As to conditions: 8 millicuries intravenous. From the text: In order to reduce radiation-related side effects use of both conventional radiation and Cyberknife radiosurgery (Accuray, Sunnyvale, Calif.) were employed together with intravenous and oral DIM and intravenous Ga-67 isotope and Gallium nitrate. This combined approach allowed reduction of the total radiation dose from 7000 cGy to 3500 cGy. On the first treatment day the patient underwent Computerized Tomography (CT) with intravenous omnipaque to enhance 3 dimensional definition of the tumor mass. This was followed by a Ga-67 SPECT scan involving administration of 8 millicuries of Gallium-67 Citrate isotope (Cardinal Health, Denver, Colo.).
On the first treatment day the patient, weighing 50 kg, underwent Computerized Tomography (CT) with intravenous omnipaque to enhance the 3 dimensional definition of the recurrent tumor mass. This was followed by a Ga-67 SPECT scan involving administration of 8 millicuries of Gallium-67 isotope (Cardinal Health, Denver, Colo.).

For a further data set, the system named is cervical dysplasia. As to conditions: treated for 3 months; cited from earlier work.
Data set [6] has as its system virus infected skin cells (HIV-1, HSV-2). As to conditions: cited from earlier work.

As to `c1ccc(-c2ccccn2)nc1` [BIP, 2,2′-bypryidyl], the “Logβ-Fe^III” value in data set [1] is reported as 16.3. For the same compound, in data set [2], the “Logβ-Zn^II” value is 13.2. Besides, the “Logβ-Ga^II” value in data set [3] is 7.7. Besides, the “Concentrations shown to inhibit Vaccinia virus replication and ribonucleotide reductase” value with Vaccinia virus is 60 to 80 µM.

`CCCC(=O)[O-].[Na+]` [BU, butyric acid sodium salt]: the “BU Effect Alone” value in the data set on CaSki cells (BU 150 μM, Table IV) is −15%.

Regarding `CC(=O)N(O)CCCCCNC(=O)CCC(=O)N(O)CCCCCNC(=O)CCC(=O)N(O)CCCCCN` [DFO, Desferrioxamine], in data set [1], the “Logβ-Fe^III” value is reported as 30.5. Moreover, the “Logβ-Zn^II” value in data set [2] is listed as 11.1. In [3], the “Logβ-Ga^II” value is on record as 27.6. The “Lipid Solubility” value in [4] is reported as “Low”.

`c1ccc2c(Cc3c[nH]c4ccccc34)c[nH]c2c1` [DIM, 3,3′-diindolylmethane]: the “DIM Effect Alone” value with C33A cells (DIM 25 μM, reduction of cell viability) is −8%; with CaSki cells (DIM 50 μM, Table II) it was −26%; with CaSki cells (DIM 75 μM, Table II), −46%; with CaSki cells (DIM 75 uM, Table III), −19%; in the data set on CaSki cells (DIM 75 μM, Table IV) it was −46%; in the data set with CaSki cells (DIM 100 uM, Table III), −21%. For the same compound, in the data set on CaSki cells (DIM 75 uM, Table V), the “DIM Alone 75 uM” value was −19%. The “Concentration required for activity (markers of apoptosis)” value in data set [5] is 50 µM.

For `O=C(O)CN(CCN(CC(=O)O)CC(=O)O)CC(=O)O` [EDTA, ethylenediaminetetraacetic acid], the “Logβ-Fe^III” value in data set [1] is on record as 25.1. For the same compound, the “Logβ-Zn^II” value in data set [2] was 16.5. The “Logβ-Ga^II” value in data set [3] was 21.0.

On to `O=C([O-])CC(O)(CC(=O)[O-])C(=O)[O-].[67Ga+3]` [Gallium-67 Citrate], for which the “Uptake of Gallium by the tumor tissue in the scan” value in the data set with tumor tissue is listed as “preferential uptake”.

In the case of `OCc1c[nH]c2ccccc12` [I3C, indole-3-carbinol], the “Women with partial improvement” value in the data set with cervical dysplasia is “about 50%”.

Regarding `Cc1c(O)c(=O)ccn1C` [L1, 1,2-Dimethyl-3-hydroxypyrid-4-one], the “Logβ-Fe^III” value in data set [1] is given as 37.2. Further, in data set [2], the “Logβ-Zn^II” value is 13.5. Further, in data set [3], the “Logβ-Ga^II” value was 32.6. For the same compound, the “Lipid Solubility” value in [4] is reported as “Moderate”.

Turning to `O=C(O)c1ccccn1` [Picolinic acid, pyridine-2-carboxylic acid], the “Pa Effect Alone” value in the data set with CaSki cells (Table III line with DIM 75 uM) and in the data set on CaSki cells (Table III line with DIM 100 uM) was −13% in each case. Also, the “Logβ-Fe^III” value in [1] is listed as 12.8. In addition, the “Logβ-Zn^II” value in [2] is reported as 12.9. Also, the “Concentration required in cell culture when used alone” value in data set [6] (U.S. Pat. No. 6,410,570) is reported as 3 mM. In data set [6] (virus infected skin cells), the “Concentration required for slowing of growth and diminished viability” value is recorded as 3,000 micromolar. For the same compound, the “Lipid Solubility” value in [4] was “High”.

For the compound `COc1cc(C2Oc3cc([C@H]4Oc5cc(O)cc(O)c5C(=O)[C@@H]4O)ccc3OC2CO)ccc1O` (some centres unmarked) [Silybin, 3,5,7,-trihydroxy-2-[3-(4-hydroxy-3-methoxyphenil)-2-hydroxymethyl-1,4-benxodioxan-6-il]-chronan-4-one], the “SY Effect Alone” value with C33A cells (SY 150 μM) is −54%; in the data set with CaSki cells (Table II line with DIM 50 μM), −4%; in the data set with CaSki cells (Table II line with DIM 75 μM), −8%. Also, in the data set with CaSki cells (Sy 150 uM, Table V), the “Sy Alone 150 uM” value is given as −5%. In addition, the “Logβ-Fe^III” value in data set [1] is listed as 41.5.

These data come from US20050063903A1, “Combined use of cruciferous indoles and chelators for the treatment of papilloma virus-related conditions” (priority 2003, published 2005).
